From ChEMBL document CHEMBL3244204, “Acetylenics. 2. Synthesis and pharmacology of certain N,N-diakyl-3-phenylpropyn-2-amines. Some analogues with tryptamine-like behavioral effects in mice” (J Med Chem, 1978)
Calls of active or inactive are those of the source. No cut-off for these calls is given here.

Tests used:
[1] = tested on: Mus musculus; assay: Induction of gross behavioral activity in ip dosed Swiss albino mouse assessed as minimum effective dose; format: functional; conditions: read-out: MED
[2] = tested on: Mus musculus; assay: Induction of gross behavioral activity in Swiss albino mouse assessed as clonic seizure of hind quarters at 50 mg/kg, ip after 10 to 15 mins; format: functional, organism-based; set-up: dose 50 mg/kg
[3] = tested on: Mus musculus; assay: Induction of gross behavioral activity in Swiss albino mouse assessed as decrease in motor activity with some clonic seizure at 50 mg/kg, ip after 25 to 30 mins; format: functional, organism-based; set-up: dose 50 mg/kg
[4] = tested on: Mus musculus; assay: Induction of gross behavioral activity in Swiss albino mouse assessed as increase in clonic seizure of hind quarters at 25 mg/kg, ip in presence of 5HT antagonist BOL; format: functional, organism-based; set-up: dose 25 mg/kg
[5] = tested on: Mus musculus; assay: Induction of gross behavioral activity in Swiss albino mouse assessed as increase in clonic seizure of hind quarters at 25 mg/kg, ip in presence of 2 to 25 mg/kg of methysergide; format: functional, organism-based
[6] = tested on: Mus musculus; assay: Induction of gross behavioral activity in Swiss albino mouse assessed as increase in clonic seizure of hind quarters at 25 mg/kg, ip in presence of 3 mg/kg of cyprohepatidine; format: functional, organism-based
[7] = tested on: Mus musculus; assay: Induction of gross behavioral activity in 3 mg/kg of cyprohepatidine treated Swiss albino mouse assessed as increase in clonic seizure of hind quarters at 25 mg/kg, ip treated 40 mins after cyprohepatidine administration; format: functional, organism-based
[8] = organism: Rattus norvegicus; assay: Inhibition of rat liver MAO assessed as release of 4-hydroxyquinoline from kynuramine at 3.6 x 10^-6 M
[9] = organism: Rattus norvegicus; assay: Inhibition of rat liver MAO assessed as release of 4-hydroxyquinoline from kynuramine at 3.6 x 10^-6 M preincubated for 10 mins

| Compound | minimal effective dose [1] | Activity [2] | Activity [3] | Activity [4] | Activity [5] | Activity [6] | Activity [7] | inhibition [8] | inhibition [9] |
| --- | --- | --- | --- | --- | --- | --- | --- | --- | --- |
| NCCc1c[nH]c2ccccc12 [TRYPTAMINE] | < 25 mg/kg | Active | Active | inactive | Active | Active | inactive |  |  |
| C#CCN(C)Cc1ccccc1 |  |  |  |  |  |  |  | 45% | 78% |
